Seven molecules from ChEMBL document CHEMBL6103633 (J Med Chem, 2025) can be followed below.

A short description of data set [1]: Cytotoxicity against Normal primary human neonatal fibroblast cell at 500 uM incubated for 72 hrs by SRB assay relative to control. Type of data set: toxicity, cell-based.
Data set [2] addresses T1, Ornithine decarboxylase (Homo sapiens) (UniProt P11926).
T1 sequence (whole entry): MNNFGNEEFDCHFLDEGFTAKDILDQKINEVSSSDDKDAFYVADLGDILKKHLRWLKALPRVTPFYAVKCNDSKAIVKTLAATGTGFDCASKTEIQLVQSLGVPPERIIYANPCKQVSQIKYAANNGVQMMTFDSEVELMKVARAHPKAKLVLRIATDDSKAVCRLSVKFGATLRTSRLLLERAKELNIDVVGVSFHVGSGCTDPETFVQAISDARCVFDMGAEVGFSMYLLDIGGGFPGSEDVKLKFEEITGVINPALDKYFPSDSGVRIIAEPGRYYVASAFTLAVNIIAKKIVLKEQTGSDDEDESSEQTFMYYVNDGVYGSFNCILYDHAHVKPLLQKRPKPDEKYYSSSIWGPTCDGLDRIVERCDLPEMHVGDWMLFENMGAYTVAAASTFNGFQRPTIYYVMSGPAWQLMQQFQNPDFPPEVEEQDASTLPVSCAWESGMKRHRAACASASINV
The experiment in a line: Inhibition of full length C-terminal his-6 tagged human ODC extracted from Escherichia coli BL21 (DE3) cells at 50 uM incubated for 30 mins by liquid scintillation analysis relative to control.

Data set [3] addresses T1, Ornithine decarboxylase (Homo sapiens). The experiment in a line: Inhibition of human ODC in human Kelly cells assessed as reduction in spermine level at 500 microM incubated for 20 min by HPLC analysis. Type of data set: cell-based.
For data set [4] the target is unchanged. Put plainly: Inhibition of human ODC in human Kelly cells assessed as effect on putrescine level at 500 microM incubated for 20 min by HPLC analysis. Type of data set: cell-based.
For data set [5] the target is unchanged. The experiment in a line: Inhibition of ODC in human Kelly cells assessed as reduction in spermidine level at 500 microM incubated for 20 min by HPLC analysis. Type of data set: cell-based.
For data set [6] the target is unchanged. The experiment in a line: Inhibition of ODC in human Kelly cells at 500 uM incubated for 2 hrs by liquid scintillation analysis. Type of data set: cell-based.
Data set [7] in a line: Dissociation constant, pKa of the compound. In kind it is physicochemical.

The term inhibition denotes the drop in the measured response relative to a control, in per cent. For orientation: pKa means the negative logarithm of the acid dissociation constant. Lower therefore signals a stronger acid or weaker base.

The source made the active and inactive calls. No cut-off for these calls is given here.

Molecule `NOC[C@H]1CCCNC1` yielded an Activity in data set [1] of 0%.
Take `NOCC1CNC1`: in data set [2], the inhibition came out at 0%.
`NOC[C@@H]1CCCNC1` registered an Activity in data set [1] of 0%.
On to `NOCC1(F)CCNC1` (racemic), for which the inhibition result in data set [3], in data set [5] and in data set [6] was “Active” in each case. Also, the inhibition entry in data set [4] is “inactive”.
Take `NCCC[C@](N)(C(=O)O)C(F)F`: the inhibition entry in data set [3], in data set [5] and in data set [6] was “Active” in each case. Besides, in data set [4], the inhibition entry is “inactive”.
Turning to `Cc1ncc(COP(=O)(O)O)c(/C=N/OCCCN)c1O`, in data set [7], the pKa was ~5.9.
With `NCCCON`, the inhibition entry in data set [3], in data set [5] and in data set [6] was “Active” throughout. Further, in data set [4], the inhibition result is “inactive”.
